The source of these data is patent US20090149440A1, “NOVEL PYRIDONECARBOXYLIC ACID DERIVATIVES OR SALTS THEREOF” (priority 2004, published 2009).

One may read the MIC as the smallest concentration in the dilution series that meets the test's criterion for growth inhibition.

Each structure is given as a SMILES string. Converted amounts (≈) assume the structure as drawn.

In one data set the test system is female ICR mice. Description: Phototoxicity test: ear abnormalities after UV irradiation. In kind it is in vivo. Also noted: key to Phototoxicity score: normal (0 point); slight erythema (score 1); medium erythema (score 2); serious erythema or edema (score 3). As to conditions: 40 mg/10 mL/kg intravenously, UV 320 to 400 nm for four hours. The procedure:
Each test compound was intravenously administered (40 mg/10 mL/kg) to female ICR mice (5- to 6-weeks old), and the mice were irradiated with UV-rays (320 to 400 nm, 1.8 mW/cm^2/sec) for four hours. Abnormalities induced in the ear of each mouse were observed immediately after (0 hour), 24 hours after, and 48 hours after the irradiation. The abnormality was evaluated according to the following criteria: normal (0 point), slight erythema (score 1), medium erythema (score 2), and serious erythema or edema (score 3).

The test system of a further data set is MRSA W44. The experiment in a line: Antibacterial activity, minimum inhibitory concentration (standard method of the Japanese Society of Chemotherapy). In kind it is cell-based. The settings on record: Staphylococcus aureus. The procedure:
(§1) Minimum inhibitory concentration (MIC: μg/mL) of the compounds shown in Table 1 was determined according to the standard method of the Japanese Society of Chemotherapy (CHEMOTHERAPY 29(1), 76, 1981).

The subject of another data set is M. luteus IFO12708. The description is as above. In kind it is cell-based. As to conditions: Micrococcus luteus. The procedure:
as §1

The subject of the next data set is S. haemolytlcus 67. The description is as above. The class given is cell-based. The procedure:
as §1

The subject of a further data set is P. mirabilis IFO3849. Described as above. In kind it is cell-based. As to conditions: Proteus mirabilis. On the procedure: as §1
The next data set has as its system human serum proteins. The experiment in a line: Binding rate to proteins by ultrafiltration method. In kind it is in vitro ADME. The settings on record: 5 μg/mL, 37° C. for 30 minutes. On the procedure:
Binding rate to proteins of the compounds shown in Table 3 was determined by ultrafiltration method. Specifically, a 0.5 mg/mL DMSO solution of each compound was diluted with human serum or a 0.4% phosphate buffer (pH: 7.4 containing 0.5% NaCl) to thereby prepare a 5 μg/mL solution. The human serum solution was incubated at 37° C. for 30 minutes and centrifugally filtrated through a filter (pore size: 0.22 μm). A portion of the serum filtrate and the phosphate buffer solution were applied to an HPLC system, and the peak area of the compound was measured. Binding rate of each compound to human serum proteins was calculated by the following equation 1: Binding rate (%)=(A−B)×100/A (equation 1) A: Peak area (in phosphate buffer) B: Peak area (in serum filtrate)

For `CCNC1CN(c2c(F)cc3c(=O)c(C(=O)O)cn(-c4nc(N)c(F)cc4F)c3c2Br)C1` [compound 2, 1-(6-amino-3,5-difluoropyridin-2-yl) 8-bromo-7-(3-ethylaminoazetidin-1-yl)-6-fluoro-4-oxo-1,4-dihydroquinolin-3-carboxylic acid], the Phototoxicity incidence in the data set with female ICR mice (0 hour after irradiation), in the data set with female ICR mice (24 hours after irradiation) and in the data set on female ICR mice (48 hours after irradiation) was 0/3 throughout. Also, the Phototoxicity score in the data set on female ICR mice (0 hour after irradiation), in the data set on female ICR mice (24 hours after irradiation) and in the data set with female ICR mice (48 hours after irradiation) was 0 each time. The MIC was found to be 0.06 µg/mL (≈ 0.117 µM) with MRSA W44, 0.25 µg/mL (≈ 0.488 µM) against M. luteus IFO12708, 8 µg/mL (≈ 15.6 µM) in the data set on S. haemolytlcus 67 and 0.25 µg/mL (≈ 0.488 µM) in the data set on P. mirabilis IFO3849. Further, the “Binding rate to proteins” value in the data set with human serum proteins was 62.8%.
